Converted amounts (≈) assume the structure as drawn. Where two headings read alike, the source gives them in different places.
What was measured:
[1] = system: Plasmodium falciparum (D6 clone); assay: in vitro antimalarial activity, D6 clone; format: cell-based; details: for IC50: Plasmodium falciparum
[2] = system: P. falciparum (chlorine-resistant W2 clone); assay: in vitro antimalarial activity, resistant W2 clone; format: cell-based, Plasmodium falciparum; details: NA = not active; for IC50: Plasmodium falciparum, read-out: P. falciparum (chlorine-resistant W2 clone) in vitro IC 50
[3] = system: Mycobacterium tuberculosis (H37Rv); assay: microplate Alamar Blue assay, in vitro activity against Mycobacterium tuberculosis; format: cell-based
toxicity (no method) = details: qualitative statement
[4] = system: Fusarium oxysporium ATCC 7601; assay: microbial transformation study to model human metabolism; details: monitored by TLC, metabolite identical to ent-12,34-oxamanzamine F (2)
Experimental: (§1) In order to model the human metabolism of the manzamines and to generate additional analogs for biological evaluation, microbial transformation studies were performed for ent-8-hydroxymanzamine A (El Sayed, et al., 2001) (3). Thirty-three growing microbial cultures were screened for their potential to bioconvert 3 to new metabolites.

Nocardia sp. ATCC 21145 = assay: as above; details: monitored by TLC, metabolite identical to ent-12,34-oxamanzamine F (2)
Experimental: as §1

[5] = D6 clone, in vitro, NA = not active

Compound	Plasmodium falciparum (D6 clone) in vitro IC 50 [1, 5] [µg/mL]	P. falciparum (chlorine-resistant W2 clone) in vitro IC 50 [2] [µg/mL]	Mycobacterium tuberculosis (H37Rv) MIC [3] [µg/mL]	other results
O=C1CCCN2[C@H]3[C@]45CN6CCCC/C=C\CC[C@]3(C=C(c3nccc7c3[nH]c3c(O)cccc37)[C@H]4CC6)O[C@]2(CC1)C5 (single isomer, unassigned; ent-12) [ent-12,34-Oxamanzamine F (2), ent-12,34-oxamanzamine F]	0.84	1.1	12.5	–
O[C@]12C=C(c3nccc4c3[nH]c3ccccc34)[C@@H]3CCN(CCCC/C=C\CC1)C[C@@]31C[C@@H]3/C=C\CCCCN3[C@H]12 [Manzamine A, manzamine A]	0.0045	0.008	1.53	–
O[C@]12C=C(c3nccc4c3[nH]c3ccccc34)C3CCN(CCCC/C=C\CC1)C[C@@]31C[C@]34CC[C@H](CCCN3[C@H]12)O4 (some centres unmarked) [6-Deoxymanzamine X, 6-deoxymanzamine X]	1.3	1.4	1.77	–
ircinol A	2.4	3.1	1.93	toxicity (toxicity (no method)): minimal toxicity
ent-8-hydroxymanzamine A [ent-8-hydroxymanzamine A (3)]	–	–	3.13	bioconversion by growing microbial culture [4]: exhaustively metabolize; bioconversion by growing microbial culture (Nocardia sp. ATCC 21145): exhaustively metabolize
(+)-8-hydroxymanzamine A	0.006	0.008	0.91	–
O=C1CCCN2[C@@H](CC1)C[C@]13CN4CCCC/C=C\CC[C@](O)(C=C(c5nccc6c5[nH]c5c(O)cccc56)C1CC4)[C@H]23 (some centres unmarked) [Manzamine F, manzamine F]	0.78	1.7	2.56	–
CCN(CC)CCCC(C)Nc1ccnc2cc(Cl)ccc12 (centres unmarked) [Chloroquine]	–	–	–	IC50 ([1]; D6, read-out: Plasmodium falciparum (D6 clone) in vitro IC 50): 0.0155 µg/mL (≈ 0.0485 µM); IC50 [2]: 0.17 µg/mL (≈ 0.531 µM)
ent-12,34-oxamanzamine E [ent-12,34-Oxamanamine E (1)]	–	–	128	–
C1=C(c2nccc3c2[nH]c2ccccc23)[C@@H]2CCN3CCCC/C=C\CC[C@]14O[C@@]15/C=C\CCCCN1[C@@H]4[C@]2(C3)C5 [12,34-oxamanzamine A (4), 12,34-oxamanzamine A]	4.76	–	–	–
O=CC1=C[C@@]2(O)CC/C=C\CCCCN3CC[C@@H]1[C@]1(CC4/C=C\CCCCN4[C@H]12)C3 (some centres unmarked) [Ircinal A, ircinal A]	–	–	30.2	–
C[C@@H]1CC[C@H]2[C@@H](C)C(=O)O[C@@H]3O[C@@]4(C)CC[C@@H]1[C@]32OO4 [Artemisinin]	–	–	–	IC50 ([1]; D6 clone, in vitro, NA = not active, read-out: Plasmodium falciparum (D6 clone) in vitro IC 50): 0.01 µg/mL (≈ 0.0354 µM); IC50 [2]: 0.0063 µg/mL (≈ 0.0223 µM)
O=C1CCCN2[C@@H](CC1)C[C@]13CN4CCCC/C=C\CC[C@](O)(C=C(c5nccc6c5[nH]c5ccccc56)[C@@H]1CC4)[C@H]23 [Manzamine E, manzamine E]	3.4	4.76	3.76	–

Reference: patent US20050244938A1, “Manzamine-producing actinomycetes” (priority 2002, published 2005)
